US20230096766A1, “AMINO ACID HAVING FUNCTIONAL GROUP CAPABLE OF INTERMOLECULAR HYDROGEN BONDING, PEPTIDE COMPOUND CONTAINING SAME AND METHOD FOR PRODUCTION THEREOF” (Chugai Seiyaku Kabushiki Kaisha, priority 2018, published 2023)
*1 amine or outer side, *2 acyl side, *3 side chain or, on linkers, in order; H or OH if unused. Where a SMILES comes first, the peptide text is derived from it. Bridges are numbered along the chain shown (N, C = ends). [ ]: non-standard residue; d: D form. The star is where a group is joined. ξ: configuration not given here. hPhe(3-OMe,4-CONHMe) = CNC(=O)c1ccc(CC[C@H](N)C(=O)O)cc1OC; NMePhe(3-Cl) = CN[C@@H](Cc1cccc(Cl)c1)C(=O)O; ξGln(SO2Me) = CS(=O)(=O)NC(=O)CCC(N)C(=O)O; Propyl(2,2-Me2,3-OH) = CC(C)(CO)C*; NMeF = CN[C@@H](Cc1ccccc1)C(=O)O; NMeGABA = CN(CCCC(=O)[*:2])[*:1]; NMeL = CN[C@@H](CC(C)C)C(=O)O; Propyl(2R-OH) = C[C@@H](O)C*; ξNMeF = CNC(Cc1ccccc1)C(=O)O; Butyl(3S-OH) = C[C@H](O)CC*; NMeV = CN[C@H](C(=O)O)C(C)C; NMeA = CN[C@@H](C)C(=O)O; Piperidide = C1CCN(*)CC1; CH2CMe2OH = CC(C)(O)C*; NBuGly = CCCCNCC(=O)O; Sar = CNCC(=O)O; tBu = CC(C)(C)*

Assay: in vitro
Conditions: human, Caco-2, Caco-2
Work on `CCCCN1CC(=O)N(C)[C@@H](C(C)C)C(=O)N[C@H](C(=O)N2CCCCC2)CC(=O)N(C)[C@@H](CC(C)C)C(=O)NC(CCC(=O)NS(C)(=O)=O)C(=O)N(C)[C@@H](CC(C)C)C(=O)N(C)[C@@H](Cc2ccccc2)C(=O)N[C@@H](CC(C)C)C(=O)N(C)[C@@H](Cc2ccccc2)C(=O)N(C)[C@@H](CC(C)C)C(=O)N[C@@H]([C@@H](C)O)C1=O` (stereo partly drawn) [pd62] ([NMeL][ξGln(SO2Me)][NMeL][NMeF]L[NMeF][NMeL]T[NBuGly][NMeV]D-Piperidide; lactam N-11) yielded a Papp of less than 0.13 ×10⁻⁶ cm/s.

Same assay, conditions: human, Caco-2, Caco-2 (cm/sec)
Work on `CC[C@H](C)[C@@H]1NC(=O)[C@H](C(C)C)N(C)C(=O)CCCN(C)C(=O)C[C@@H](C(=O)N2CCCCC2)NC(=O)[C@H](CC(C)C)N(C)C(=O)[C@H](C)N(C)C(=O)[C@H](Cc2ccc(O)cc2)NC(=O)[C@H](CC(C)C)N(C)C(=O)[C@H](COC(C)(C)C)NC(=O)[C@H](Cc2ccccc2)N(C)C(=O)[C@H](CC(C)C)N(C)C1=O` [pd125] ([NMeGABA][NMeV]I[NMeL][NMeF]S(tBu)[NMeL]Y[NMeA][NMeL]D-Piperidide; lactam N-11) yielded a Papp of 0.45 ×10⁻⁶ cm/s. Work on `CCCCN1CC(=O)N(C)[C@@H](Cc2cccc(Cl)c2)C(=O)N(C)[C@@H](CC(C)C)C(=O)N[C@@H](COC[C@@H](C)O)C(=O)N(C)[C@@H](CC(C)C)C(=O)N[C@H](C(=O)N2CCCCC2)CC(=O)N(C)CC(=O)N(C)[C@@H](Cc2ccccc2)C(=O)N[C@@H]([C@@H](C)CC)C(=O)N(C)[C@@H](CC(C)C)C(=O)N[C@@H]([C@@H](C)O)C1=O` [AP78] ([Sar][NMeF]I[NMeL]T[NBuGly][NMePhe(3-Cl)][NMeL]S(Propyl(2R-OH))[NMeL]D-Piperidide; lactam N-11) yielded a Papp of 0.24 ×10⁻⁶ cm/s. In the case of `CC(C)C[C@@H]1NC(=O)[C@H](Cc2ccccc2)N(C)C(=O)[C@@H](CC(C)C)NC(=O)C[C@@H](C(=O)N2CCCCC2)NC(=O)[C@H](CC(C)C)N(C)C(=O)[C@H](Cc2ccccc2)N(C)C(=O)[C@H](COC(C)(C)C)NC(=O)[C@H](CC(C)C)N(C)C(=O)CN(C)C(=O)[C@H](COC[C@@H](C)O)NC(=O)[C@H](CC(C)C)N(C)C1=O` [AP81] ([dL][NMeF]L[NMeL]S(Propyl(2R-OH))[Sar][NMeL]S(tBu)[NMeF][NMeL]D-Piperidide; lactam N-11), the Papp is reported as 0.69 ×10⁻⁶ cm/s. Compound `CCCCN1CC(=O)N(C)[C@@H](CC(C)C)C(=O)N[C@@H](COCC(C)(C)CO)C(=O)N(C)[C@@H](Cc2ccccc2)C(=O)N(C)[C@@H](CC(C)C)C(=O)N[C@H](C(=O)N2CCCCC2)CC(=O)N[C@H](C(C)C)C(=O)N(C)C(Cc2ccccc2)C(=O)N[C@@H](CC(C)C)C(=O)N(C)[C@@H](CC(C)C)C(=O)N[C@@H]([C@@H](C)O)C1=O` (stereo partly drawn) [AP126] ([dV][ξNMeF]L[NMeL]T[NBuGly][NMeL]S(Propyl(2,2-Me2,3-OH))[NMeF][NMeL]D-Piperidide; lactam N-11) has a Papp of 0.14 ×10⁻⁶ cm/s. Compound `CC[C@H](C)[C@@H]1NC(=O)[C@H](CC(C)C)NC(=O)[C@H](CC(C)C)N(C)C(=O)[C@H](CC(C)C)NC(=O)C[C@@H](C(=O)N2CCCCC2)NC(=O)[C@H](CC(C)C)N(C)C(=O)[C@H]([C@@H](C)O)NC(=O)[C@H](CCc2ccc(C(=O)NC)c(OC)c2)NC(=O)[C@H](CC(C)C)N(C)C1=O` [AP263] (L[NMeL]LI[NMeL][hPhe(3-OMe,4-CONHMe)]T[NMeL]D-Piperidide; lactam N-9) has a Papp of 1.8 ×10⁻⁶ cm/s. `CCCCN1CC(=O)N(C)[C@@H](Cc2ccccc2)C(=O)N(C)[C@@H](CC(C)C)C(=O)N[C@@H](Cc2ccc(O)cc2)C(=O)N(C)[C@@H](CC(C)C)C(=O)N[C@H](C(=O)N2CCCCC2)CC(=O)N(C)CC(=O)N(C)[C@@H](CC(C)C)C(=O)N[C@@H]([C@@H](C)CC)C(=O)N(C)[C@@H](CC(C)C)C(=O)N[C@@H]([C@@H](C)O)C1=O` [Compound F08] ([Sar][NMeL]I[NMeL]T[NBuGly][NMeF][NMeL]Y[NMeL]D-Piperidide; lactam N-11) showed a Papp of 0.05 ×10⁻⁶ cm/s. Compound `CC(C)C[C@@H]1NC(=O)[C@H](Cc2ccccc2)N(C)C(=O)[C@@H](C(C)C)NC(=O)C[C@@H](C(=O)N2CCCCC2)NC(=O)[C@H](CC(C)C)N(C)C(=O)[C@H](Cc2cccc(Cl)c2)N(C)C(=O)[C@H](COCC[C@H](C)O)NC(=O)[C@H](CC(C)C)N(C)C(=O)CN(C)C(=O)[C@H]([C@@H](C)O)NC(=O)[C@H](CC(C)C)N(C)C1=O` [AP100] ([dV][NMeF]L[NMeL]T[Sar][NMeL]S(Butyl(3S-OH))[NMePhe(3-Cl)][NMeL]D-Piperidide; lactam N-11) has a Papp of 0.55 ×10⁻⁶ cm/s. Work on `CC[C@H](C)[C@@H]1NC(=O)[C@H](CC(C)C)N(C)C(=O)CCCN(C)C(=O)C[C@@H](C(=O)N2CCCCC2)NC(=O)[C@H](CC(C)C)N(C)C(=O)[C@H](CC(C)C)N(C)C(=O)[C@H]([C@@H](C)O)NC(=O)[C@H](CC(C)C)N(C)C(=O)[C@H](COCC(C)(C)O)NC(=O)[C@H](Cc2cccc(Cl)c2)N(C)C(=O)[C@H](Cc2ccccc2)N(C)C1=O` [AP04] ([NMeGABA][NMeL]I[NMeF][NMePhe(3-Cl)]S(CH2CMe2OH)[NMeL]T[NMeL][NMeL]D-Piperidide; lactam N-11) yielded a Papp of 0.53 ×10⁻⁶ cm/s.
